{
  "source": "patent US20070066595A1",
  "about": "“Selective estrogen receptor modulators” (priority 2004, published 2007)",
  "key": {"[1]": {"test_system": "immature (3 week old) female rats, estrogen-induced uterine weight", "test": "3-Day Rat Uterus Antagonist Assay", "type": "in vivo", "details": "3 days, with E2 0.1 mg/kg; for inhibition of the estrogen-induced response: 1.0 mg/kg oral, uterine weight/body weight ratio", "from_the_text": "3-Day Rat Uterus Antagonist Assay: This model for uterine antagonism utilizes immature (3 week old) female rats that are highly sensitive to estrogenic stimulation of the uterus given that their circulating estrogen levels are prepubertal. The uteri from immature rats are fully responsive to exogenous estrogen, yet are quiescent in the absence of exogenous estrogen. Administration of exogenous estrogen to immature rats produces a reliable elevation of uterine weight, which can be used to study uterine antagonist effects. The rats are treated with both estradiol and 4 different concentrations of a compound of the present invention for 3 days and then uterine wet weights are measured.\nNineteen to twenty-one day old (or 45-50 g) female rats are orally treated with E2 (0.1 mg/kg, a maximal stimulatory estrogenic stimulus for reliably increasing uterine weight) and 10, 1.0, 0.1 and 0.01 mg/kg test compound for 3 days, 6 rats per group. Test compounds are dissolved in 20% β-hydroxycyclodextrin and administered by oral gavage in a volume of 0.2 mL daily (15 min. prior to the ethynyl estradiol gavage). A vehicle control, E2 alone and E2+raloxifene are also done as controls. The animals are fasted overnight following the final dose. On the following morning, the animals are weighed, then euthanized (by carbon dioxide asphyxiation) and the uteri rapidly collected (via a mid-line ventral incision) and weighed.\nUterine weight/body weight ratios (UWR) are calculated for each animal. The percent inhibition of the estrogen-induced response is then calculated by the following formula: percent inhibition=100×(UWRestrogen−UWRtest compound/UWRestrogen−UWRcontrol). ED50 values are derived from a semi-log regression analysis of the linear aspect of the dose response curve. Both the UWR data and the percent inhibition data are statistically analyzed by one way analysis of variance (ANOVA) with post-hoc testing by Fisher's PLSD when indicated by a p<0.05. Statistical analyses are performed using the Statview® 4.0 software package."}, "[2]": {"test_system": "mature F344 female rats, serum LH and estradiol", "test": "10-Day Rat Hormone (Ovarian Stimulation) Screen", "type": "in vivo", "details": "oral gavage 10 days; serum about 2 hours after 10th dose; RIA", "protocol": "10-Day Rat Hormone (Ovarian Stimulation) Screen: An initial, first screen for ovarian toxicity is conducted using a 10-day rat hormone study to measure estradiol and luteinizing hormone levels after compound administration. This screen is conducted by administering compound by oral gavage for 10 days to mature (9-10 week old) F344 female rats. Trunk blood is collected by rapid decapitation for evaluation of LH and estradiol levels approximately 2 hours after the 10th dose. Serum, obtained by centrifugation, is removed and stored frozen below −60° C. until assayed. Serum levels of LH and estradiol are measured using radioimmunoassay (RIA) methods.\nRat LH primary antibody and reference preparations (rat LH:RP-3) are obtained from Dr. A. F. Parlow, Director, Pituitary Hormones and Antisera Center, Harbor-UCLA Medical Center, Torrance, Calif. The LH assay upper limits of detection are 30 ng/mL and the lower limits of detection are 0.1 ng/mL for the 100 μl samples.\nE2 Clinical Assays. DiaSorin s.r.l., Saluggia (Vercelli), Italy. The upper limit of detection is 1000 pg/mL and the lower limit of detection is 5 pg/mL."}, "[3]": {"test_system": "Ishikawa human endometrial tumor cells", "test": "Ishikawa Cell Proliferation Assay (alkaline phosphatase readout; agonist and antagonist modes)", "type": "cell-based", "protocol": "Ishikawa Cell Proliferation Assay: This assay measures cell proliferation (using an alkaline phosphatase readout) in both an agonist mode in the presence of a compound of the present invention alone, and in an antagonist mode in which the ability of a compound of the present invention to block estradiol stimulation of growth is measured.\nIshikawa human endometrial tumor cells are maintained in MEM (minimum essential medium, with Earle's salts and L-Glutamine, Gibco BRL, Gaithersburg, Md.), supplemented with 10% fetal bovine serum (FBS) (V/V), (Gibco BRL). One day prior to assay, growth media is changed to assay medium, DMEM/F-12 (3:1) (Dulbecco's Modified Eagle Medium: Nutrient Mixture F-12, 3:1 Mixture, phenol red-free, Gibco BRL) supplemented with 5% dextran coated charcoal stripped fetal bovine serum (DCC-FBS) (Hyclone, Logen, Utah), L-Glutamine (2 mM), MEM sodium pyruvate (1 mM), HEPES (N-[2-hydroxyethyl]piperazine-N′-[2-ethanesulfonic acid]2 mM) all from Gibco BRL). After an overnight incubation, Ishikawa cells are rinsed with Dulbecco's Phosphate Buffered Saline (1×) (D-PBS) without Ca^+2 and Mg^+2 (Gibco BRL), and trypsinized by a 3 minute incubation with 0.25% Trypsin/EDTA, phenol red-free (Gibco BRL). Cells are resuspended in assay medium and adjusted to 250,000 cells/mL. Approximately 25,000 cells in a 100 ul media are added to flat-bottom 96 wells microculture plates (Costar 3596) and incubated at 37° C. in a 5% CO2 humidified incubator for 24 hours. […]\nFor the antagonist mode, plates receive 25 μl/well of 6 nM E2 (β-Estradiol, Sigma, St. Louis, Mo.) followed by 25 μl/well of a diluted compound of the present invention (at 6× the final concentrations). […] After a 20-minute incubation, plates are read on a spectophotometer at 405 nm.\nThe data is fitted to a linear interpolation to derive EC50 (for agonist mode) or IC50 (for antagonist mode) values. For the antagonist mode, a % efficacy for each compound is calculated versus E2 (1 nM) alone. For the agonist mode, a % efficacy for each compound is calculated versus the response to tamoxifen."}},
  "note": "Read-outs that look alike come from different tables or passages of the source.",
  "data": [
    {"smiles": "CS(=O)(=O)C1CC=C(c2ccc3cc(O)ccc3c2Oc2ccc(OCCN3CCCCC3)cc2)CC1.Cl", "note": "(racemic) [Example 2, (+/−)-6-(4-Methanesulfonyl-cyclohex-1-enyl)-5-[4-(2-piperidin-1-yl-ethoxy)-phenoxy]-naphthalen-2-ol Hydrochloride]", "values": [
      {"measurement": "inhibition of the estrogen-induced response", "setting": "[1]", "result": "inhibit the estrogen-induced response"},
      {"measurement": "circulating LH levels", "setting": "[2]", "result": "did not significantly elevate"},
      {"measurement": "circulating estradiol levels", "setting": "[2]", "result": "did not significantly elevate"}
    ]},
    {"smiles": "CS(=O)(=O)C1CCC(c2ccc3cc(O)ccc3c2Oc2ccc(OCCN3CCCCC3)cc2)CC1.Cl", "note": "(stereo not drawn) [Example 3, 6-cis-and-trans-(4-Methanesulfonyl-cyclohexyl)-5-[4-(2-piperidin-1-yl-ethoxy)-phenoxy]-naphthalen-2-ol Hydrochloride]", "values": [
      {"measurement": "inhibition of the estrogen-induced response", "setting": "[1]", "result": "inhibit the estrogen-induced response"}
    ]},
    {"smiles": "Cl.O=S1(=O)CC=C(c2ccc3cc(O)ccc3c2Oc2ccc(OCCN3CCCCC3)cc2)CC1", "note": "[Example 9, 6-(1,1-Dioxo-1,2,3,6-tetrahydro-1λ^6-thiopyran-4-yl)-5-[4-(2-piperidin-1-yl-ethoxy)-phenoxy]-naphthalen-2-ol Hydrochloride]", "values": [
      {"measurement": "Emax", "setting": "[3]; agonist mode, versus the response to tamoxifen, read-out: relative % efficacy", "result": 19, "unit": "%"},
      {"measurement": "IC50", "setting": "[3]; antagonist mode, block of estradiol stimulation", "result": 7.2, "unit": "nM"},
      {"measurement": "Emax", "setting": "[3]; antagonist mode, versus E2 (1 nM) alone, read-out: % efficacy (inhibition of the 1 nM estradiol response)", "result": 97.9, "unit": "%"},
      {"measurement": "inhibition of the estrogen-induced response", "setting": "[1]", "result": "inhibit the estrogen-induced response"},
      {"measurement": "% antagonism", "setting": "[1]; oral", "result": 72.6, "unit": "%"},
      {"measurement": "ED50", "setting": "[1]; oral", "result": 0.17, "unit": "mpk"}
    ]},
    {"smiles": "Cl.O=S1(=O)CCC(c2ccc3cc(O)ccc3c2Oc2ccc(OCCN3CCCCC3)cc2)CC1", "note": "[Example 10, 6-(1,1-Dioxo-hexahydro-1λ^6-thiopyran-4-yl)-5-[4-(2-piperidin-1-yl-ethoxy)-phenoxy]-naphthalen-2-ol Hydrochloride]", "values": [
      {"measurement": "inhibition of the estrogen-induced response", "setting": "[1]", "result": "inhibit the estrogen-induced response"}
    ]}
  ]
}
